Active and inactive are the calls of the source.
Experiments:
[1] = biological target: Sphingosine 1-phosphate receptor 1 (Homo sapiens, UniProt P21453); experiment: Fluorescence-based counterscreen assay for S1P4 agonists: Cell-based dose response high throughput screening assay to identify agonists of the Sphingosine 1-Phosphate Receptor 1 (S1P1). [Related pubchem assays (depositor defined):AID1509, AID1523, AID1801, AID463107, AID463118, AID463119, AID463122, AID463123, AID463129, AID463225, AID504400, AID504460]; assay type: functional
[2] = biological target: T1, Sphingosine 1-phosphate receptor 4 (Homo sapiens, UniProt O95977); experiment: Fluorescence dose response cell-based high throughput screening assay for agonists of the Sphingosine 1-Phosphate Receptor 4 (S1P4). [Related pubchem assays: 1509 (Primary screen.), 1523 (Confirmation screen in triplicates.)]; assay type: functional
T1 sequence (O95977 whole entry): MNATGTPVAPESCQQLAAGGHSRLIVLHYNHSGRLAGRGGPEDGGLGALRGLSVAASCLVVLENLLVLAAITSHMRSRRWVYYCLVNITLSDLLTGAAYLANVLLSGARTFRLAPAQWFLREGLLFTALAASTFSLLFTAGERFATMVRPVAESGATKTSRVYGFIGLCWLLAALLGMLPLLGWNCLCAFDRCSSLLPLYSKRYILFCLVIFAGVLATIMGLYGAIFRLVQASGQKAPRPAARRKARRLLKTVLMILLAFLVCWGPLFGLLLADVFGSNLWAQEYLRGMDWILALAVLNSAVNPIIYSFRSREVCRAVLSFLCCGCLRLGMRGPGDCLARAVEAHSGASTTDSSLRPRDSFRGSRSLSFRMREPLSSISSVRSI

[3] = biological target: T2, Dual specificity protein phosphatase 3 (Homo sapiens, UniProt P51452); experiment: VHR1 phosphatase inhibitors, primary screen, biochemical, absorbance, uHTS (AID 1654)
T2 sequence (P51452 whole entry): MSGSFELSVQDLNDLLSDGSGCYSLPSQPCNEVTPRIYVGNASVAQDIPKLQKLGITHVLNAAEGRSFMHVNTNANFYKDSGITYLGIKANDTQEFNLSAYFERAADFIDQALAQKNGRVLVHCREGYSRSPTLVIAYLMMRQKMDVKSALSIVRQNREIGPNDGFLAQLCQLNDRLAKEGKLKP

[4] = biological target: Glyceraldehyde-3-phosphate dehydrogenase (Homo sapiens, UniProt P04406)
Chain of Glyceraldehyde-3-phosphate dehydrogenase (P04406 whole entry): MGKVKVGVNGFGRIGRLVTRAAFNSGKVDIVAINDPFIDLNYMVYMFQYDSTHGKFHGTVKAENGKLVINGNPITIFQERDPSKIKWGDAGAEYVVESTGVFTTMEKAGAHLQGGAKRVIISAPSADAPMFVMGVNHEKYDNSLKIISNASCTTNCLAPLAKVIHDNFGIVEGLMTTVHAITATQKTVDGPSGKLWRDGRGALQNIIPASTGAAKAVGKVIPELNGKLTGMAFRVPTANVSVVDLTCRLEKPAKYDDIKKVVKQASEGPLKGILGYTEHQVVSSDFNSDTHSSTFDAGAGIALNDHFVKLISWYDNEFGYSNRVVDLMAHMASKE

[5] = biological target: T3, Voltage-gated N-type calcium channel alpha-1B subunit/Amyloid beta A4 precursor protein-binding family A member 1 (Homo sapiens, UniProt Q00975+Q02410); assay type: protein assay
T3 sequence (Q00975 whole entry): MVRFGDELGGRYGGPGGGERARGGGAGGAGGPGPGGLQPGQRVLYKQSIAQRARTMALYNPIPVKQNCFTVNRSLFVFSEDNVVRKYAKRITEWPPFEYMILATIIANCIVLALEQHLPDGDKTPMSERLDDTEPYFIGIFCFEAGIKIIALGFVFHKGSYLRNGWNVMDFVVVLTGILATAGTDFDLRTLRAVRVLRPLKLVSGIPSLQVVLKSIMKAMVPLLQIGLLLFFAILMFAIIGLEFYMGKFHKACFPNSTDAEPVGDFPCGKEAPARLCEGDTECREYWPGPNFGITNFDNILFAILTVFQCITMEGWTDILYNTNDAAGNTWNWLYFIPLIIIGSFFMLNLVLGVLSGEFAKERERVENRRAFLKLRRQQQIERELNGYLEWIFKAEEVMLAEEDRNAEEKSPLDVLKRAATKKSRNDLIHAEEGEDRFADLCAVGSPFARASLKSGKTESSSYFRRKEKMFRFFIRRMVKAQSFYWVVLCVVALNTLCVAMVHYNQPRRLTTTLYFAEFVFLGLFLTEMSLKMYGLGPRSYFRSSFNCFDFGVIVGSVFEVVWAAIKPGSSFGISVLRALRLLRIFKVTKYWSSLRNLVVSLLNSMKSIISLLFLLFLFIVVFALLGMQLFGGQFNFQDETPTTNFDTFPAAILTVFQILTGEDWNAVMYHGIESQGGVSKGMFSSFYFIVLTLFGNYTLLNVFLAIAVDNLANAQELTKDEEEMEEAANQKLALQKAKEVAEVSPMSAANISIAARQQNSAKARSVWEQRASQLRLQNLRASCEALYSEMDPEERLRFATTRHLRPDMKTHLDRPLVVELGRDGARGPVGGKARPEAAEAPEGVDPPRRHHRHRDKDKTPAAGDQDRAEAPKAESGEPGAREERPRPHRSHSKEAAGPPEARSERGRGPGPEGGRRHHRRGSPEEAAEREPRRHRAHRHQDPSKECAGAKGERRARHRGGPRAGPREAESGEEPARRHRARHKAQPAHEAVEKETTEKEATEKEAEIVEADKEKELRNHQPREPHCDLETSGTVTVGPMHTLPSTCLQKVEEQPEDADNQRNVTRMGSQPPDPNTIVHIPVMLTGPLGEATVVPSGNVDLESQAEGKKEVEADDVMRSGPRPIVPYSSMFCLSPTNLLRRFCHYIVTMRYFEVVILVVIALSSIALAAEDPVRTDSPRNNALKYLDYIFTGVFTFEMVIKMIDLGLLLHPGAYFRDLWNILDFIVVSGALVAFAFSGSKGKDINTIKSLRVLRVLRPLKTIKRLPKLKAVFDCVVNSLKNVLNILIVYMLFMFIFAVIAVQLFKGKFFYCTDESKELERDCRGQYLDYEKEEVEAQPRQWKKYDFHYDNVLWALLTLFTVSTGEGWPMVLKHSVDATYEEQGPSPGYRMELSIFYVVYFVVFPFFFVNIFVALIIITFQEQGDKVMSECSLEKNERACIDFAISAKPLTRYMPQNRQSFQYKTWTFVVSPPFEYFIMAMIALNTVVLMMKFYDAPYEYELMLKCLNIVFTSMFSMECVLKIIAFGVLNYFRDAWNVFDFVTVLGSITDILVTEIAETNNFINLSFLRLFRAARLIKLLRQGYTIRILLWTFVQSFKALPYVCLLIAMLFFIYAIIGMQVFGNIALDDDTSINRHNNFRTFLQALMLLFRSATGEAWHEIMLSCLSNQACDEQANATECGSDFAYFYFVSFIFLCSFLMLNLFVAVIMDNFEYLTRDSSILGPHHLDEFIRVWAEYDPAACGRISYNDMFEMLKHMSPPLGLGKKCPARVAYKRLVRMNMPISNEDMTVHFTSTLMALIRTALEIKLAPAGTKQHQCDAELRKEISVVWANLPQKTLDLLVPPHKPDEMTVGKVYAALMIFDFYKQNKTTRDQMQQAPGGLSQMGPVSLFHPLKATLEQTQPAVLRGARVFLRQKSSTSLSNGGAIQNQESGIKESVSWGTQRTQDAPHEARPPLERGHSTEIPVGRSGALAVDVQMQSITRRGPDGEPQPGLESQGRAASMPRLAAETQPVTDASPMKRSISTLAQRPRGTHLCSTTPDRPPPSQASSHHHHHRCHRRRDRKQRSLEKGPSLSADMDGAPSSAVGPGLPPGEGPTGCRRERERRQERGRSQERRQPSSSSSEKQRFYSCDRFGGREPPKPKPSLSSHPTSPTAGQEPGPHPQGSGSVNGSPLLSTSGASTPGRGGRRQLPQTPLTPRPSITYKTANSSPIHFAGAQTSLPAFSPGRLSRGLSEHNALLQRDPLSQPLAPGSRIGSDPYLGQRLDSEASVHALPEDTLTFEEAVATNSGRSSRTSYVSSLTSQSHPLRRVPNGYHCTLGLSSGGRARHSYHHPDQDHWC
T3 sequence (Q02410 whole entry): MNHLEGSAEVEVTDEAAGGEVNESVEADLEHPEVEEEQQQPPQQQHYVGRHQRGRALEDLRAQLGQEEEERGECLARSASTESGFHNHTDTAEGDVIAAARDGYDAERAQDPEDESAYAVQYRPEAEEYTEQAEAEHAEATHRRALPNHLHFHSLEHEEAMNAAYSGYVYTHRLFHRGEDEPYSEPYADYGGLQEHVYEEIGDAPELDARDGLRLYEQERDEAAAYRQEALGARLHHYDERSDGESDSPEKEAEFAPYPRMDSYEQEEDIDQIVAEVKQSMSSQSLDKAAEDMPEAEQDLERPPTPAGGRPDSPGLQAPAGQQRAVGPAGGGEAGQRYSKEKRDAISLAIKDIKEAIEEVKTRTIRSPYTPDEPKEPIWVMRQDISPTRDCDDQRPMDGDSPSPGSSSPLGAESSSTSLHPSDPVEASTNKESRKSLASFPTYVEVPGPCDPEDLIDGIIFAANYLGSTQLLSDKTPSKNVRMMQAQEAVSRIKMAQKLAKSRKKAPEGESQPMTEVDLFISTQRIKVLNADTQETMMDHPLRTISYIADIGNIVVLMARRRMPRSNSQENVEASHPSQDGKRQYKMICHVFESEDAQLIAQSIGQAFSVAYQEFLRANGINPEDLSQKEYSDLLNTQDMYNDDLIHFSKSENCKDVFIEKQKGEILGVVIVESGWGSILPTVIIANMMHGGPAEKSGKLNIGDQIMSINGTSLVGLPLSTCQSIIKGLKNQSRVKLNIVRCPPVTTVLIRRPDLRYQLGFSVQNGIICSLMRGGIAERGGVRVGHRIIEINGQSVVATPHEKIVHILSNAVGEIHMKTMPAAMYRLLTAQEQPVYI

NS3 = NS3 (Hepatitis C virus, UniProt A3EZJ3); experiment: PubChem AID 2173; design: species or system Hepacivirus hominis
[6] = biological target: T3, Voltage-gated N-type calcium channel alpha-1B subunit/Amyloid beta A4 precursor protein-binding family A member 1; assay type: protein assay; remark: listed apart in the source
[7] = biological target: T2, Dual specificity protein phosphatase 3; experiment: VHR1 phosphatase inhibitors, biochemical (AID 1878)
[8] = biological target: Dual specificity protein phosphatase 6 (Rattus norvegicus, UniProt Q64346); experiment: inhibition of rat DUSP6 enzyme activity – biochemical, in vitro, primary screen (AID 425)
[9] = biological target: Tyrosine-protein phosphatase non-receptor type 12 (Homo sapiens, UniProt Q05209); experiment: SAR Selectivity Analysis of small molecule inhibitors of PEST using pCAP in a fluorescence assay. [Related pubchem assays (depositor defined):AID1779, AID1784, AID2135]; assay type: functional
[10] = biological target: T4, Tyrosine-protein phosphatase non-receptor type 22 (Homo sapiens, UniProt Q9Y2R2); experiment: SAR LYP1 Fluorescent Assay using OMFP substrate for In Vitro dose response studies - Set 3. [Related pubchem assays (depositor defined):AID1779, AID1784, AID2140, AID2686]; assay type: functional
T4 sequence (Q9Y2R2 whole entry): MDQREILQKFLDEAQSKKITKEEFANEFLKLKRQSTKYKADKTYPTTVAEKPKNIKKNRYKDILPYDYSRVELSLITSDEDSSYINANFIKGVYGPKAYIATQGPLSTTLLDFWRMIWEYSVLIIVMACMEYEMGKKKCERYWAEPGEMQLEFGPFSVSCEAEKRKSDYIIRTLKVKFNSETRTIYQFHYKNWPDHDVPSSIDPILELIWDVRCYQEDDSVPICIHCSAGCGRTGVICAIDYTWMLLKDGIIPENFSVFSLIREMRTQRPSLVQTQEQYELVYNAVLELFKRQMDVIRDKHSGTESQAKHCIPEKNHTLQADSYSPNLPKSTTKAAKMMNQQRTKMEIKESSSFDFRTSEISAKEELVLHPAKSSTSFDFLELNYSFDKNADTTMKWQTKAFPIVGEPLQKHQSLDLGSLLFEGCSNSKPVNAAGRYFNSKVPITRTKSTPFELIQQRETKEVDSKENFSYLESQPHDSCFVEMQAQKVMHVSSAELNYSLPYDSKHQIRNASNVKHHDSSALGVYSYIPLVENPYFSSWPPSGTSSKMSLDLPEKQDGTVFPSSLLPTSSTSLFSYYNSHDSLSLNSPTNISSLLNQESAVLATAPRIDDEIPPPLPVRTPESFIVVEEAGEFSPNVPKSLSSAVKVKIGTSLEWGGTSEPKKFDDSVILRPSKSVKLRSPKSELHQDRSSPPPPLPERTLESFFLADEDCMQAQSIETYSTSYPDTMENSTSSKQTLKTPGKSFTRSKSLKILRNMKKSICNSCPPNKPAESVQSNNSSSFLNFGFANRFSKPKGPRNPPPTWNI

[11] = biological target: T5, Tyrosine-protein phosphatase non-receptor type 7 (Homo sapiens, UniProt P35236); experiment: inhibition of hematopoietic tyrosine phosphatase HePTP – biochemical, set 2, SAR follow-up (AID 449736); assay type: functional
T5 sequence (P35236 whole entry): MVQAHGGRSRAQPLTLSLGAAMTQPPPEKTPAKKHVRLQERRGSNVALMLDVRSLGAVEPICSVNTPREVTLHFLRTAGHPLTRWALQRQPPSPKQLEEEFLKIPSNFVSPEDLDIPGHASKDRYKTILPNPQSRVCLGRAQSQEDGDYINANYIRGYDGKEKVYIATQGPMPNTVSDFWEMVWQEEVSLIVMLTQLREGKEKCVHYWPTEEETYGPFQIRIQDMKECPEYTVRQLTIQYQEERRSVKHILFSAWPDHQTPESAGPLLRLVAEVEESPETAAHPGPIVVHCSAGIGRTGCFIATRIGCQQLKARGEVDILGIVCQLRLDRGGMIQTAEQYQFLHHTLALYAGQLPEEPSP

[12] = biological target: T4, Tyrosine-protein phosphatase non-receptor type 22; experiment: inhibition of lymphoid tyrosine phosphatase LYP – biochemical, pCAP fluorogenic substrate, fluorescence, set 3, SAR follow-up (AID 449727); assay type: functional
[13] = biological target: T6, Kappa-type opioid receptor (Homo sapiens, UniProt P41145); experiment: SAR analysis of small molecule agonists of the kappa opioid receptor via a luminescent beta-arrestin assay. [Related pubchem assays (depositor defined):AID1777, AID1786, AID1966, AID2133, AID2136, AID2348, AID2352, AID2357, AID2359, AID2370, AID2420, AID2478, AID2491, AID2492, AID2493, AID2497, AID2498, AID2500, AID449737, AID488822, AID488842]; assay type: functional
T6 sequence (P41145 whole entry): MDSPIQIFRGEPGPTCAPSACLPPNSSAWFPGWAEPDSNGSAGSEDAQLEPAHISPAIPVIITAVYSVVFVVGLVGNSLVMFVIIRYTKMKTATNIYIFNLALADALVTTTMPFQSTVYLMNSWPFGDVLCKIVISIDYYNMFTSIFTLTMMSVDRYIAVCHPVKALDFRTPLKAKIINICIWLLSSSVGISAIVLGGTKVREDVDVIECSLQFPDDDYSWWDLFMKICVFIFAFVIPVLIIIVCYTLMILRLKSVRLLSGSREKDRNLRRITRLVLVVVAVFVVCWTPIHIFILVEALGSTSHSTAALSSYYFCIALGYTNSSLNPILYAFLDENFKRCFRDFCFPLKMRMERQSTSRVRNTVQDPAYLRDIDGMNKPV

Mu-type opioid receptor [14] = biological target: T7, Mu-type opioid receptor (Homo sapiens, UniProt P35372); experiment: mu opioid receptor activators, image-based, SAR follow-up (AID 2352); assay type: functional
T7 sequence (P35372 whole entry): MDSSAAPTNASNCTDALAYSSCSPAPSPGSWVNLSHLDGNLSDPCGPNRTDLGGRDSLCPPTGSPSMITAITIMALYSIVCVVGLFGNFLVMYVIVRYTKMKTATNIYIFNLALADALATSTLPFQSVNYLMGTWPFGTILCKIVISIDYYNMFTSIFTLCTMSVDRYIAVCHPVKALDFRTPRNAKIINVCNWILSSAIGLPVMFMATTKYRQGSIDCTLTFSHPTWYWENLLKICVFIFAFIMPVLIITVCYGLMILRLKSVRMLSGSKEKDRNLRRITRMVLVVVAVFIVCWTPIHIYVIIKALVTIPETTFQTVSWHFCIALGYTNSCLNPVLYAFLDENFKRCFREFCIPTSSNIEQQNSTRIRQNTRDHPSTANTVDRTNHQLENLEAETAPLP

[15] = biological target: T8, Delta-type opioid receptor (Homo sapiens, UniProt P41143); experiment: DOR agonists, SAR follow-up, image-based (AID 2370); assay type: functional
T8 sequence (P41143 whole entry): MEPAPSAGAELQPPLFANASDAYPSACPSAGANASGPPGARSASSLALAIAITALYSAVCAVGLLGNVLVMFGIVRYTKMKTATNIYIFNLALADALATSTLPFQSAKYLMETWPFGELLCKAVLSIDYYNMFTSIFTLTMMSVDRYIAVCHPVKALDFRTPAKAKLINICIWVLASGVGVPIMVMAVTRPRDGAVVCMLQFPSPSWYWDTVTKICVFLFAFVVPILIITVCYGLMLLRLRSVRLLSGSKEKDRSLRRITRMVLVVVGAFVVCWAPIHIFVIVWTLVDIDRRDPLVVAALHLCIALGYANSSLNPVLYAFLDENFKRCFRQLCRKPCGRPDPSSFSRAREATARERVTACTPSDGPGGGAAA

[16] = biological target: T6, Kappa-type opioid receptor; experiment: kappa opioid receptor blockers, image-based, SAR follow-up (AID 2348); assay type: functional
Mu-type opioid receptor [17] = biological target: T7, Mu-type opioid receptor; experiment: mu opioid receptor blockers – image-based, SAR follow-up (AID 2420); assay type: functional;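 note: compounds added before stimulation of receptor with agonist DAMGO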
[18] = biological target: T6, Kappa-type opioid receptor; experiment: kappa opioid receptor activation potency – imaging, image-based, SAR follow-up (AID 2359); assay type: functional
[19] = biological target: T8, Delta-type opioid receptor; experiment: delta opioid receptor blockers – image-based, SAR follow-up (AID 2357); assay type: functional
CAAX prenyl protease 1 = CAAX prenyl protease 1 (Saccharomyces cerevisiae S288c, UniProt P47154); experiment: yeast CAAX protease Ste24 inhibition – biochemical, S. cerevisiae, plate reader, cherry-pick, dose response (AID 488815)
[20] = biological target: Lysine-specific demethylase 4A (Homo sapiens, UniProt O75164); experiment: inhibition of JMJD2A H3K9me3 demethylation – biochemical, DELFIA europium, cherry-picked samples, selectivity assay for GASC-1 inhibitor project, dose response (AID 488840)
[21] = biological target: Lysine-specific demethylase 4C (Homo sapiens, UniProt Q9H3R0); experiment: inhibition of JMJD2C H3K9me3 demethylation – biochemical, DELFIA europium, cherry-picked samples, dose response (AID 488835); assay type: functional
[22] = bead-based luminescence quenchers, dual-tagged ARNT – biochemical, AlphaScreen, cherry-pick, artefact control for ARNT-TACC3 interaction inhibitor project, dose response (AID 651705); assay type: functional;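 note: AlphaScreen bead proximity signal that flags compounds interfering with the detection technology; potency reflects signal decrease which marks the compound as an assay artifact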
[23] = biological target: T6, Kappa-type opioid receptor; experiment: kappa opioid receptor activation by imaging – image-based, set 3, SAR follow-up (AID 488833); assay type: functional
Mu-type opioid receptor [24] = biological target: T7, Mu-type opioid receptor; experiment: SAR Analysis of Agonists of the MOR Receptor using an Image-Based Assay - Set 3. [Related pubchem assays (depositor defined):AID1777, AID1785, AID1786, AID1966, AID2133, AID2136, AID2284, AID2285, AID2352]; assay type: functional
[25] = biological target: T8, Delta-type opioid receptor; experiment: SAR Analysis of Agonists of the DOR Receptor using an Image-Based Assay - Set 3. [Related pubchem assays (depositor defined):AID1777, AID1786]; assay type: functional
[26] = biological target: T6, Kappa-type opioid receptor; experiment: SAR analysis of small molecule agonists of the kappa opioid receptor via a luminescent beta-arrestin assay - Set 3. [Related pubchem assays (depositor defined):AID1777, AID1785, AID1786, AID1966, AID2133, AID2136, AID2284, AID2500]; assay type: functional
Exodeoxyribonuclease V = Exodeoxyribonuclease V (Escherichia coli (strain K12), UniProt P04993+P07648+P08394); experiment: RecBCD inhibition via phage-restricted bacterial growth – absorbance, V66 E. coli, mutant T4 phage, counter-screen for AddAB inhibitor project, dose response (AID 492957); assay type: functional, cell-based, Escherichia coli str. K-12 substr. MG1655
Bcl-2-related protein A1 = biological target: T9, Bcl-2-related protein A1 (Mus musculus, UniProt Q07440); assay type: functional;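 note: confirmatory dose–response counterscreen on Bfl-1, used to check hits from a UBC13 polyubiquitin inhibitor campaign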
T9 sequence (Q07440 whole entry): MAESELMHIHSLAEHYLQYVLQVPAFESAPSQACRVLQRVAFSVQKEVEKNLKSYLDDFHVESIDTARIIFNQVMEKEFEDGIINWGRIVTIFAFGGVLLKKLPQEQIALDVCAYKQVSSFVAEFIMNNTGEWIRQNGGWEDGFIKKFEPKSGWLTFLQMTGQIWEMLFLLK

[27] = biological target: T10, Ubiquitin-conjugating enzyme E2 N (Homo sapiens, UniProt P61088); assay type: functional
T10 sequence (P61088 whole entry): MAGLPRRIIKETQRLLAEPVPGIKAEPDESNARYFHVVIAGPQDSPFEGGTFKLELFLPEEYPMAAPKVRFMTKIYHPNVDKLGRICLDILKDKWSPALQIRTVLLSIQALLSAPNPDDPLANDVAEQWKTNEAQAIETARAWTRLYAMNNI

[28] = biological target: T10, Ubiquitin-conjugating enzyme E2 N; assay type: functional; remark: listed apart in the source
[29] = Counterscreen for AddAB inhibitors: absorbance-based bacterial cell-based high throughput dose response assay for inhibitors of bacterial viability. [Related pubchem assays (depositor defined):AID435030, AID449728, AID449731, AID488942, AID488955, AID488956]; assay type: functional
INS1 = experiment: INS-1E survival protection against cytokine death – cell-based, luminescence, retest, dose response (AID 449756); assay type: functional; details: Rattus norvegicus;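 note: cell death triggered by IL-1 beta plus TNF-alpha plus IFN-gamma mixture; protective hits raise ATP signal compared with cytokine alone wells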

Clc1ccc(C2=NN(c3ccccc3)C(c3ccco3)C2)cc1 (centres undefined)
EC50 [1]: > 5.53 µM (inactive) | EC50 [2]: > 16.6 µM (not active)

O=C(O)CCN1C(=O)/C(=C2\C(=O)N(Cc3ccccc3Cl)c3ccccc32)SC1=S
IC50 [3]: 3.2 µM (active) | IC50 [4]: > 100 µM (not active) | IC50 [5]: 9.81 µM (active) | IC50 (NS3): 3.06 µM (active) | IC50 [6]: > 50 µM (inactive) | IC50 [7]: < 1.23 µM (inactive) | IC50 [8]: 30.9 µM (active) | IC50 [9]: 2.03 µM (active) | IC50 [10]: 2.88 µM (active) | IC50 [11]: 0.549 µM (active) | IC50 [12]: 1.91 µM (active)

O=C(c1cnccn1)N(Cc1cccs1)C1(C(=O)NC2CCCCC2)CCCCC1
EC50 [13]: 0.444 µM (active) | EC50 (Mu-type opioid receptor [14]): > 32 µM (inactive) | EC50 [15]: > 32 µM (inactive) | IC50 [16]: > 32 µM (inactive) | IC50 (Mu-type opioid receptor [17]): > 32 µM (inactive) | EC50 [18]: 0.141 µM (active) | IC50 [19]: > 32 µM (inactive)

CCOC(=O)c1cc(C)nc(O)c1C#N
AC50 (CAAX prenyl protease 1): 12.3 µM (active)

O=C(Nc1nnc(-c2ccco2)o1)c1ccc(N2C(=O)CCC2=O)cc1
AC50 [20]: 13.9 µM (active) | AC50 [21]: 14.7 µM (active) | AC50 [22]: 126 µM (active)

O=[N+]([O-])c1ccc(CSc2nnc(-c3ccccn3)n2Cc2ccco2)cc1
EC50 [23]: 2.35 µM (active) | EC50 (Mu-type opioid receptor [24]): > 32 µM (inactive) | EC50 [25]: > 64 µM (inactive) | EC50 [26]: 2.48 µM (active)

CCC[C@@H](CN1CCC[C@H]1CN1C(N)=NC[C@@H]1Cc1ccccc1)N1C[C@@H]([C@H](C)CC)N(CCCC2CCCC2)C1=N
IC50 (Exodeoxyribonuclease V): 15.2 µM (inactive) | IC50 (Bcl-2-related protein A1): > 20 µM (inactive) | IC50 [27]: 10.9 µM (active) | IC50 [28]: 8.52 µM (active) | IC50 [29]: 17.5 µM (inactive) | AC50 (INS1): 7.33 µM (active)
